# Experimental data taken from PMC6445159, “Resorcinol-, catechol- and saligenin-based bronchodilating β2-agonists as inhibitors of human cholinesterase activity” (Journal of Enzyme Inhibition and Medicinal Chemistry, 2017).
# Like-named read-outs stand apart in the source and are kept apart here.
# Experiments:
# atypical BChE [1] = target: T1, atypical BChE (Homo sapiens, UniProt P06276, D98G); test: Reversible inhibition of atypical BChE (Ellman method, Hunter–Downs evaluation); type: biochemical
# T1 construct: Human native serum was used as a source of BChE; from tissue; host or cells: human serum
# Description: (§1) ATCh was used as a substrate for AChE and PTCh as a substrate for BChE. The reaction mixture contained DTNB (final concentration 0.3 mM), buffer, enzyme suspension, inhibitor (0.5–10 mM) and ATCh or PTCh (0.025–1.0 mM). Inhibition of enzymes was determined by measuring the decrease in enzyme activity in the presence of inhibitors.
# (§2) The dissociation constant for an enzyme–inhibitor complex K(I) was evaluated from the impact of substrate concentrations [S] on the degree of inhibition applying the Hunter–Downs equation[17]^,[39]: Ki,app=vi/v0-vi·[I]=K(I)+K(I)/K(S)·[S] where Ki,app is an apparent enzyme-reversible inhibitor complex dissociation constant obtained at a given substrate concentration [S] in the presence of inhibitor concentration [I] and calculated from the enzyme activities v0 and vi measured without inhibitor and in the presence of inhibitor concentration [I], respectively. K(I) is the enzyme-reversible inhibitor complex dissociation constant and can stand for a complex formed at the catalytic site or for a complex formed at the peripheral site of the enzyme. K(S) is the enzyme-substrate dissociation constant that could be approximated to the Michaelis constant or to the enzyme-substrate dissociation constant when two molecules of the substrate are bound to the enzyme.
# fluoride-resistant BChE [2] = target: T2, fluoride-resistant BChE (Homo sapiens, UniProt P06276); conditions: substrate PTCh, K(I) ± SE
# Description: as §1, §2
# human AChE [3] = target: T3, human AChE (Homo sapiens, UniProt P22303); test: biochemical; type: biochemical
# Description: as §1, §2
# usual BChE [4] = target: T4, usual BChE (Homo sapiens, UniProt P06276); test: biochemical; type: biochemical; conditions: for inhibition potency higher than other compounds of the same group: usual BChE, versus other resorcinol-, catechol- or saligenin-based compounds
# T4 construct: Human native serum was used as a source of BChE; from tissue; host or cells: human serum (donor, IMROH Zagreb)
# Description: as §1, §2
# β-adrenoceptor = conditions: more potent than (S)-enantiomer; cited from earlier work
# human AChE [5] = target: T3, human AChE; conditions: K(I) ± SE; cited from earlier work
# atypical BChE [6] = target: T1, atypical BChE; conditions: K(I) ± SE; cited from earlier work
# usual BChE [7] = target: T4, usual BChE; conditions: K(I) ± SE, cited from earlier work
# fluoride-resistant BChE [8] = target: T2, fluoride-resistant BChE; conditions: K(I) ± SE; cited from earlier work
# [9] = enantiomers, substrate PTCh, pH 7.4, 25 °C, K(I) ± SE, read-out: K(I)
# [10] = enantiomers, substrate ATCh, pH 7.4, 25 °C, K(I) ± SE, read-out: K(I)
# [11] = racemate, 0.1 M phosphate buffer pH 7.4, 25 °C
# T3 sequence (P22303 32-614): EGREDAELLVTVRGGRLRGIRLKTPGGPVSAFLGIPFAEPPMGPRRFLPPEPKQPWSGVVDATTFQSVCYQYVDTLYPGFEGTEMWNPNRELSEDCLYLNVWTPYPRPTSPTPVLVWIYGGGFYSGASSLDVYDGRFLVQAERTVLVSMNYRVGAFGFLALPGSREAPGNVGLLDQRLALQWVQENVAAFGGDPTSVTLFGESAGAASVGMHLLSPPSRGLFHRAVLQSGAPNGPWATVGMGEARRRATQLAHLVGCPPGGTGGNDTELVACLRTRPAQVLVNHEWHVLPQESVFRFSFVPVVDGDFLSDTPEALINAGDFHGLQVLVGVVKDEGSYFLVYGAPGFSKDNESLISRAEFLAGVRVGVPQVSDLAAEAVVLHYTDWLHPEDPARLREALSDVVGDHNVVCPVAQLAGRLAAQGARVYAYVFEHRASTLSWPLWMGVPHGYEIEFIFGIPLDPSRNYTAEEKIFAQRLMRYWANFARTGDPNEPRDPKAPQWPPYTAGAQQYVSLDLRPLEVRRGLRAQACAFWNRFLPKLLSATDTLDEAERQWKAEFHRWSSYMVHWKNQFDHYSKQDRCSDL
# T4 sequence (P06276 29-602): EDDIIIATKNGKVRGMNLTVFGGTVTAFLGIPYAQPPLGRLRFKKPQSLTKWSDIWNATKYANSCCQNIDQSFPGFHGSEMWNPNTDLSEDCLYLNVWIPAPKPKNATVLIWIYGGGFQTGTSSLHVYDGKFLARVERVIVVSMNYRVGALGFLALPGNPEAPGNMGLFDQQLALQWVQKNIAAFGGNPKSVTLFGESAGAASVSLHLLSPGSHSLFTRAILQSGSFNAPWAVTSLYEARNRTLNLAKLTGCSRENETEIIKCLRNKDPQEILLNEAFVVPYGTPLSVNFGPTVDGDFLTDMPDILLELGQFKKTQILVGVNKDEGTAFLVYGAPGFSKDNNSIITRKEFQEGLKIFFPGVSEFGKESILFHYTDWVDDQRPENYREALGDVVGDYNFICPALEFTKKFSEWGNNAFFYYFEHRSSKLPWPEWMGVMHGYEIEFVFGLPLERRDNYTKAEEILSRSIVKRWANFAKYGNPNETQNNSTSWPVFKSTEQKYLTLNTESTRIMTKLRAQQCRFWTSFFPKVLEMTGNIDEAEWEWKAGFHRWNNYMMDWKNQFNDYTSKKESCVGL
# T2 sequence (P06276 29-602, change not shown): as the sequence (P06276 29-602) above
# T1 sequence (P06276 29-602 D98G): as the sequence (P06276 29-602) above, with D70G counted along it
compound,measurement,setting,value
CC(C)NC[C@H](O)c1ccc(O)c(O)c1 [(R)-isoproterenol],Ki,atypical BChE [1]; [9],1.4 ± 0.1 mM
same,Ki,"fluoride-resistant BChE [2]; enantiomers, pH 7.4, 25 °C",1400 ± 200 µM
same,Ki,human AChE [3]; [10],2 ± 0.5 mM
same,Ki,usual BChE [4]; [9],810 ± 130 µM
CC(C)(C)NC[C@H](O)c1ccc(O)c(CO)c1 [(R)-salbutamol],Ki,atypical BChE [1]; [9],2.3 ± 0.2 mM
same,Ki,"fluoride-resistant BChE [2]; enantiomers, pH 7.4, 25 °C",300 ± 60 µM
same,potency as β-adrenoceptor agonist relative to (S)-enantiomer,β-adrenoceptor,approximately 80 times
same,Ki,human AChE [3]; [10],4 ± 0.3 mM
same,Ki,usual BChE [4]; [9],190 ± 40 µM
OCc1cc([C@@H](O)CNCCCCCCOCCCCc2ccccc2)ccc1O [(R)-salmeterol],Ki,atypical BChE [1]; [9],0.071 ± 0.019 mM
same,Ki,"fluoride-resistant BChE [2]; enantiomers, pH 7.4, 25 °C",31 ± 4 µM
same,Ki,human AChE [3]; [10],0.033 ± 0.003 mM
same,Ki,usual BChE [4]; [9],15 ± 1 µM
CC(C)(C)NC[C@H](O)c1cc(O)cc(O)c1 [(R)-terbutaline],stereoselectivity: preference for (R) enantiomer over racemate,"atypical BChE [1]; atypical BChE, K(I) racemate versus (R) enantiomer",3 fold
same,Ki,atypical BChE [1]; [9],1 ± 0.1 mM
same,Ki,"fluoride-resistant BChE [2]; enantiomers, pH 7.4, 25 °C",220 ± 50 µM
same,stereoselectivity: preference for (R) enantiomer over racemate,"human AChE [3]; AChE, K(I) racemate versus (R) enantiomer",2 fold
same,Ki,human AChE [3]; [10],2 ± 0.3 mM
same,Ki,usual BChE [4]; [9],110 ± 30 µM
CC(C)(C)NC[C@@H](O)c1ccc(O)c(CO)c1 [(S)-salbutamol],Ki,atypical BChE [1]; [9],1.5 ± 0.2 mM
same,Ki,"fluoride-resistant BChE [2]; enantiomers, pH 7.4, 25 °C",300 ± 40 µM
same,Ki,human AChE [3]; [10],1.8 ± 0.1 mM
same,Ki,usual BChE [4]; [9],310 ± 50 µM
OCc1cc([C@H](O)CNCCCCCCOCCCCc2ccccc2)ccc1O [(S)-salmeterol],Ki,atypical BChE [1]; [9],0.067 ± 0.013 mM
same,Ki,"fluoride-resistant BChE [2]; enantiomers, pH 7.4, 25 °C",20 ± 3 µM
same,Ki,human AChE [3]; [10],0.028 ± 0.006 mM
same,Ki,usual BChE [4]; [9],15 ± 1 µM
CNC[C@H](O)c1ccc(O)c(O)c1 [Epinephrine],Ki,atypical BChE [1]; read-out: K(I),1.6 ± 1 mM
same,Ki,fluoride-resistant BChE [2]; [11],3800 ± 1500 µM
same,Ki,human AChE [3],6.4 ± 1.1 mM
same,Ki,usual BChE [4],3700 ± 1200 µM
same,selectivity: inhibition of usual BChE more potent than AChE (ratio of K(I) constants),usual BChE [4],lowest selectivity
CC(Cc1ccc(O)cc1)NCC(O)c1cc(O)cc(O)c1 (centres unmarked) [Fenoterol],Ki,atypical BChE [1],0.63 ± 0.03 mM
same,Ki,fluoride-resistant BChE [2]; [11],61 ± 17 µM
same,Ki,human AChE [3],0.86 ± 0.05 mM
same,Ki,usual BChE [4],24 ± 1 µM
CCC(NC(C)C)C(O)c1ccc(O)c(O)c1 (centres unmarked) [Isoetharine],Ki,atypical BChE [1],0.26 ± 0.05 mM
same,Ki,fluoride-resistant BChE [2]; [11],86 ± 4 µM
same,higher inhibition potency,"human AChE [3]; AChE, compared to isoproterenol",12 fold
same,Ki,human AChE [3]; read-out: K(I),0.21 ± 0.04 mM
same,Ki,usual BChE [4]; read-out: K(I),31 ± 3 µM
same,inhibition potency higher than other compounds of the same group,usual BChE [4],≤ 120 times
CC(C)NCC(O)c1ccc(O)c(O)c1 (centres unmarked) [Isoproterenol],Ki,human AChE [5],2.5 ± 1 mM
same,Ki,atypical BChE [6],1.6 ± 0.3 mM
same,Ki,usual BChE [7]; read-out: K(I),470 ± 210 µM
same,increase in inhibition potency,"human AChE [3]; AChE, compared to epinephrine",2 fold
same,Ki,fluoride-resistant BChE [8],990 ± 120 µM
CC(C)NCC(O)c1cc(O)cc(O)c1 (centres unmarked) [Metaproterenol],Ki,atypical BChE [6],6.1 ± 0.7 mM
same,Ki,usual BChE [7],550 ± 110 µM
same,Ki,fluoride-resistant BChE [8],870 ± 180 µM
CC(C)(C)NCC(O)c1ccc(O)c(CO)c1 (centres unmarked) [Salbutamol],Ki,atypical BChE [1],1.4 ± 0.2 mM
same,Ki,fluoride-resistant BChE [2]; [11],190 ± 20 µM
same,Ki,human AChE [3],2 ± 0.2 mM
same,higher inhibition potency,"human AChE [3]; AChE, compared to terbutaline",two times
same,Ki,usual BChE [4],71 ± 6 µM
same,selectivity: inhibition of usual BChE more potent than AChE (ratio of K(I) constants),usual BChE [4],28 times
OCc1cc(C(O)CNCCCCCCOCCCCc2ccccc2)ccc1O (centres unmarked) [Salmeterol],Ki,atypical BChE [1],0.086 ± 0.018 mM
same,Ki,fluoride-resistant BChE [2]; [11],9.8 ± 2.3 µM
same,Ki,human AChE [3],0.03 ± 0.002 mM
same,increase in inhibition potency,"human AChE [3]; AChE, salmeterol versus salbutamol",67 fold
same,Ki,usual BChE [4],13 ± 1 µM
same,selectivity: inhibition of usual BChE more potent than AChE (ratio of K(I) constants),usual BChE [4],two times
same,inhibition potency higher than other compounds of the same group,usual BChE [4],≤ 5.5 times
CC(C)(C)NCC(O)c1cc(O)cc(O)c1 (centres unmarked) [Terbutaline],Ki,atypical BChE [6],3.3 ± 0.7 mM
same,Ki,usual BChE [7],180 ± 150 µM
same,Ki,human AChE [3]; read-out: K(I),4.8 ± 0.2 mM
same,selectivity: inhibition of usual BChE more potent than AChE (ratio of K(I) constants),usual BChE [4],27 times
same,Ki,fluoride-resistant BChE [8],300 ± 320 µM
(R)-epinephrine,Ki,atypical BChE [1]; [9],12 ± 2 mM
same,Ki,human AChE [3]; [10],3.2 ± 0.4 mM
same,Ki,usual BChE [4]; [9],4700 ± 1800 µM
